Patent US5395840A, “Heterocyclically substituted phenyl-cyclohexane-carboxylic acid derivatives” (Bayer Aktiengesellschaft, priority 1993, dated 1995)
pIC50, pKi: −log10 of the molar value. Blank lines part the entries; values can stand above or below the compound they belong to.

How the values were obtained:
[1] = test system: contractions induced by AII (isolated rabbit aorta rings); test: Inhibition of the vascular contraction in isolated rabbit aorta rings in vitro, contractions induced by angiotensin II; type: cell-based; conditions: Oryctolagus cuniculus, based on the 3rd = submaximal agonist concentration, read-out: IC50 against contractions induced by: AII
Protocol: Rabbits of either sex are stunned by a blow to the back of the head and bled out, or in some cases anaesthetized with Nembutal (about 60-80 mg/kg i.v.) and sacrificed by opening the thorax. The thoracic aorta is removed, freed from adhering connective tissue, divided into ring segments 1.5 mm wide and individually transferred under an initial loading of about 3.5 g to 10 ml organ baths containing Krebs-Henseleit nutrient solution, aerated with 95% O2 /5% CO2 and temperature-controlled at 37° C., of the following composition: 119 mmol/l of NaCl; 2.5 mmol/l of CaCl2 ×2H2 O; 1.2 mmol/l of KH2 PO4; 10 mmol/l of glucose; 4.8 mmol/l of KCl; 1.4 mmol/l of MgSO4 ×7H2 O and 25 mmol/l of NaHCO3.
The contractions are determined isometrically by means of Statham UC2 cells via bridge amplifiers (ifd Mulheim or DSM Aalen) and digitalized by means of A/D converters (System 570, Keithley Munich) and assessed. The agonist dose response curves (DRCs) are plotted hourly. With each DRC, 3 or 4 individual concentrations are applied to the baths =at a 4 min interval. […]
The height of the 3rd DRC, in a normal case, is used as a reference quantity for the assessment of the test substance to be investigated in further runs, which substance is applied to the baths in the following DRCs in each case in increasing dose at the start of the incubation period. […]

Angiotensin II Receptor = target: T1, Angiotensin II Receptor (Bos taurus, UniProt P25104); test: Interaction with the angiotensin II receptor in membrane fractions of the adrenal gland cortex (bovine), 3H-angiotensin II binding; conditions: 3H-angiotensin II (3-5 nM), bovine adrenal gland cortex membranes, 60 min at room temperature, pH 7.2
T1 construct: Adrenal gland cortices from cattle (AGCs), which have been freshly removed and carefully freed from gland medulla; from tissue; host or cells: bovine adrenal gland cortex, partially purified membrane fractions
T1 sequence (P25104 1-359): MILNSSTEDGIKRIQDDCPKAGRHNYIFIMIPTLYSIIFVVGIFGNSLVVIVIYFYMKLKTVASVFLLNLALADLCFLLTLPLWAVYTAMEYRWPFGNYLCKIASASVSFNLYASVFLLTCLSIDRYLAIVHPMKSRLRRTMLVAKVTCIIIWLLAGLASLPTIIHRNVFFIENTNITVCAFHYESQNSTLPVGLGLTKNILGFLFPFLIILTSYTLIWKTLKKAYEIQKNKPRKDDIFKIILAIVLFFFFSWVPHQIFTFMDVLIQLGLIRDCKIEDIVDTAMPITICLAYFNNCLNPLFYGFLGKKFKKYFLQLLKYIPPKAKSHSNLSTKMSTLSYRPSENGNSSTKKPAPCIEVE
Protocol: Adrenal gland cortices from cattle (AGCs), which have been freshly removed and carefully freed from gland medulla, are comminuted in sucrose solution (0.32M) with the aid of an Ultra-Turrax (Janke & Kunkel, Staufen i.B.) to give a coarse membrane homogenate and partially purified to give membrane fractions in two centrifugation steps.
The receptor binding investigations are carried out on partially purified membrane fractions of bovine AGC using radioactive angiotensin II in an assay volume of 0.25 ml, which specifically contains the partially purified membranes (50-80 μg), ^3 H-angiotensin II (3-5 nM), test buffer solution (50 mM Tris, pH 7.2, 5 mM MgCl2) and the substances to be investigated. After an incubation period of 60 min at room temperature, the unbound radioactivity of the samples is separated by means of moistened glass fiber filters (Whatman GF/C) and the bound radioactivity is measured […] in a scintillation cocktail after washing the protein with ice-cold buffer solution (50 mM Tris/HCl, pH 7.4, 5% PEG 6000). The raw data were analysed using computer programs to give Ki or IC50 values (Ki : IC50 values corrected for the radioactivity used; IC50 values: concentration at which the substance to be investigated causes a 50% inhibition of the specific binding of the radioligand).

smooth muscle cells = test: Inhibition of the proliferation of smooth muscle cells (3H-thymidine incorporation); type: cell-based; conditions: rat aortic smooth muscle cells, stimulated by 10% FCS
Protocol: To determine the antiproliferative action of the compounds, smooth muscle cells are used which are obtained from the aortas of rats by the media explant technique [R. Ross, J. Cell. Biol. 50., 172, 1971]. The cells are inoculated into suitable culture dishes, as a rule 96-hole plates, and cultured at 37° C. in 5% CO2 for 2-3 days in medium 199 containing,7.5% FCS and 7.59% NCS, 2 mM L-glutamine and 15 mM HEPES, pH 7.4. The cells are then synchronized for 2-3 days by withdrawal of serum and then stimulated into growth using serum or other factors. Test compounds are simultaneously added. After 16-20 hours, 1 μCi ^3 H-thymidine is added and after a further 4 hours the incorporation of this substance into the TCA-precipitable DNA of the cells is determined. To determine the IC50 values, the active compound concentration is calculated which, on sequential dilution of the active compound, causes semi-maximum inhibition of the thymidine incorporation produced by 10% FCS.

pIC50 [1]: 6.59 | pKi (Angiotensin II Receptor): 7.33
SMILES: CC(C)(C)OC(=O)[C@@H]1CCCC[C@H]1c1ccc(Cn2c(-c3ccccc3)nc3cccnc32)cc1 (relative stereo) [Example 9]

SMILES: O=C(N[C@H](CO)c1ccccc1)C1CCCCC1c1ccc(Cn2c(C3CC3)nc3cccnc32)cc1 (single isomer, unassigned) [Example 16]
pIC50 (smooth muscle cells): 6.39

SMILES: O=C(N[C@H](CO)c1ccccc1)C1CCCCC1c1ccc(Cn2c(C3CC3)nc3cccnc32)cc1 (single isomer, unassigned) [Example 17]
pIC50 (smooth muscle cells): 8.70

SMILES: NC(=O)C(NC(=O)C1CCCCC1c1ccc(Cn2c(C3CC3)nc3cccnc32)cc1)c1ccccc1 (single isomer, unassigned) [Example 21]
pIC50 (smooth muscle cells; Rattus norvegicus): 8.15

SMILES: O=C(N[C@H](CO)c1ccccc1)C1CCCCC1c1ccc(Cn2c(-c3ccccc3)nc3cccnc32)cc1 (stereo partly shown) [Example 25]
pIC50 (smooth muscle cells; Rattus norvegicus): 7.59

SMILES: CCCCc1nc2cc(Br)cnc2n1Cc1ccc(C2CCCCC2C(=O)N[C@H](CO)c2ccccc2)cc1 (stereo partly shown) [Example 29]
pIC50 (smooth muscle cells; Rattus norvegicus): 8.40

pIC50 [1]: 6.66 | pKi (Angiotensin II Receptor): 7.72
SMILES: CCCCc1nc2ccccc2n1Cc1ccc(C2CCCCC2C(=O)N[C@H](CO)c2ccccc2)cc1 (stereo partly shown) [Example 30]

SMILES: CCCCc1nc2ccccc2n1Cc1ccc(C2CCCCC2C(=O)N[C@H](CO)c2ccccc2)cc1 (stereo partly shown) [Example 31]
pIC50 (smooth muscle cells; Rattus norvegicus): 8.52
